Test results taken from ChEMBL document CHEMBL3856255, “Synthesis and biological evaluation of Hederacolchiside A1 derivatives as anticancer agents” (Bioorg Med Chem Lett, 2016).

Assays:
[1] = Cytotoxicity against human NCI-H460 cells assessed as reduction in cell viability after 48 hrs by MTT assay; type: functional, cell-based; details: NCI-H460, 48 h
Mus musculus [2] = experiment: Toxicity in mouse assessed as death time administered as submicron emulsions through caudal vein injection dosed daily; type: organism-based; details: in vivo, iv
[3] = Cytotoxicity against human U251 cells assessed as reduction in cell viability after 48 hrs by MTT assay; type: functional, cell-based; details: U-251, 48 h
[4] = Cytotoxicity against human SMMC7721 cells assessed as reduction in cell viability after 48 hrs by MTT assay; type: functional, cell-based; details: SMMC-7721, 48 h
[5] = Cytotoxicity against human SGC7901 cells assessed as reduction in cell viability after 48 hrs by MTT assay; type: functional, cell-based; details: SGC-7901, 48 h
[6] = Cytotoxicity against human SKOV3 cells assessed as reduction in cell viability after 48 hrs by MTT assay; type: functional, cell-based; details: SK-OV-3, 48 h
[7] = Cytotoxicity against human HCT116 cells assessed as reduction in cell viability after 48 hrs by MTT assay; type: functional, cell-based; details: HCT-116, 48 h
[8] = Antitumor activity against H22 cells xenografted in nude mouse assessed as tumor growth inhibition at 20 mg/kg administered as submicron emulsions through caudal vein injection dosed daily for 14 days; type: functional; details: H22, 336 h; read-out: TGI
Mus musculus [9] = experiment: Toxicity in nude mouse xenografted with […] cells assessed as induction of mouse mortality at 10 mg/kg administered as submicron emulsions through caudal vein injection dosed daily for 14 days; type: organism-based; details: in vivo, iv, 336 h
Mus musculus [10] = experiment: Toxicity in nude mouse xenografted with […] cells assessed as body weight level at 20 mg/kg administered as submicron emulsions through caudal vein injection dosed daily for 14 days (reference value: 42.63 +/- 5.81 g); type: organism-based; details: in vivo, iv, 336 h
[11] = Antitumor activity against H22 cells xenografted in nude mouse assessed as tumor growth inhibition at 10 mg/kg administered as submicron emulsions through caudal vein injection dosed daily for 14 days; type: functional; details: H22, 336 h; read-out: TGI
Mus musculus [12] = experiment: Toxicity in nude mouse xenografted with […] cells assessed as induction of mouse mortality at 20 mg/kg administered as submicron emulsions through caudal vein injection dosed daily for 14 days; type: organism-based; details: in vivo, iv, 336 h
Mus musculus [13] = experiment: Toxicity in nude mouse xenografted with […] cells assessed as body weight level at 10 mg/kg administered as submicron emulsions through caudal vein injection dosed daily for 14 days (reference value: 42.63 +/- 5.81 g); type: organism-based; details: in vivo, iv, 336 h
Mus musculus [14] = experiment: Toxicity in nude mouse xenografted with […] cells assessed as body weight level at 6 mg/kg administered as submicron emulsions through caudal vein injection dosed every 3 days for 14 days (reference value: 42.63 +/- 5.81 g); type: organism-based; details: in vivo, iv
[15] = Cytotoxicity against human HCT116 cells assessed as reduction in cell viability after 24 hrs by MTT assay; type: functional, cell-based; details: HCT-116, 24 h
[16] = Antitumor activity against H22 cells xenografted in nude mouse assessed as tumor growth inhibition at 6 mg/kg administered as submicron emulsions through caudal vein injection dosed every 3 days for 14 days; type: functional; details: read-out: TGI
[17] = Cytotoxicity against human SKOV3 cells assessed as reduction in cell viability after 24 hrs by MTT assay; type: functional, cell-based; details: SK-OV-3, 24 h
[18] = Cytotoxicity against human SGC7901 cells assessed as reduction in cell viability after 24 hrs by MTT assay; type: functional, cell-based; details: SGC-7901, 24 h
[19] = Toxicity in mouse assessed as tolerance dose administered as submicron emulsions through caudal vein injection dosed daily for 7 days; type: organism-based; details: in vivo, iv, read-out: Activity
[20] = Cytotoxicity against human NCI-H460 cells assessed as reduction in cell viability after 24 hrs by MTT assay; type: functional, cell-based; details: NCI-H460, 24 h
[21] = Cytotoxicity against human U251 cells assessed as reduction in cell viability after 24 hrs by MTT assay; type: functional, cell-based; details: U-251, 24 h
[22] = Cytotoxicity against human SMMC7721 cells assessed as reduction in cell viability after 24 hrs by MTT assay; type: functional, cell-based; details: SMMC-7721, 24 h

Row | Structure (SMILES) | IC50 [1] [µM] | Time (Mus musculus [2]) [days] | IC50 [3] [µM] | IC50 [4] [µM] | IC50 [5] [µM] | IC50 [6] [µM] | IC50 [7] [µM] | also measured
1 | C[C@@H]1O[C@@H](O[C@H]2[C@H](O[C@H]3CC[C@]4(C)[C@H]5CC=C6[C@@H]7CC(C)(C)CC[C@]7(C(=O)OCC(=O)O)CC[C@@]6(C)[C@]5(C)CC[C@H]4C3(C)C)OC[C@H](O[C@@H]3O[C@H](CO)[C@@H](O)[C@H](O)[C@H]3O)[C@@H]2O)[C@H](O)[C@H](O)[C@H]1O | 1.8 | 7 | 2 | 2.2 | 3.3 | 2.7 | 3.9 | –
2 | C[C@@H]1O[C@@H](O[C@H]2[C@H](O[C@H]3CC[C@]4(C)[C@H]5CC=C6[C@@H]7CC(C)(C)CC[C@]7(C(=O)OCCCO)CC[C@@]6(C)[C@]5(C)CC[C@H]4C3(C)C)OC[C@H](O[C@@H]3O[C@H](CO)[C@@H](O)[C@H](O)[C@H]3O)[C@@H]2O)[C@H](O)[C@H](O)[C@H]1O | 55.7 | – | 43.5 | > 100 | 47.3 | > 100 | 39.2 | –
3 | CCOC(=O)[C@]12CCC(C)(C)C[C@H]1C1=CC[C@@H]3[C@@]4(C)CC[C@H](O[C@@H]5OC[C@H](O[C@@H]6O[C@H](CO)[C@@H](O)[C@H](O)[C@H]6O)[C@H](O)[C@H]5O[C@@H]5O[C@@H](C)[C@H](O)[C@@H](O)[C@H]5O)C(C)(C)[C@@H]4CC[C@@]3(C)[C@]1(C)CC2 | 2.7 | – | 1.6 | 3.5 | 4.9 | 5.8 | 5.3 | –
4 | C[C@@H]1O[C@@H](O[C@H]2[C@H](O[C@H]3CC[C@]4(C)[C@H]5CC=C6[C@@H]7CC(C)(C)CC[C@]7(C(=O)OCCO)CC[C@@]6(C)[C@]5(C)CC[C@H]4C3(C)C)OC[C@H](O[C@@H]3O[C@H](CO)[C@@H](O)[C@H](O)[C@H]3O)[C@@H]2O)[C@H](O)[C@H](O)[C@H]1O | 46.7 | – | 13.4 | 35.6 | 20.6 | 19.7 | 25.6 | –
5 | C[C@@H]1O[C@@H](O[C@H]2[C@H](O[C@H]3CC[C@]4(C)[C@H]5CC=C6[C@@H]7CC(C)(C)CC[C@]7(C(=O)OCCC(=O)O)CC[C@@]6(C)[C@]5(C)CC[C@H]4C3(C)C)OC[C@H](O[C@@H]3O[C@H](CO)[C@@H](O)[C@H](O)[C@H]3O)[C@@H]2O)[C@H](O)[C@H](O)[C@H]1O | 9.8 | – | 4.6 | 2.7 | 6.5 | 5.4 | 11.1 | –
6 | CNC(=O)[C@]12CCC(C)(C)C[C@H]1C1=CC[C@@H]3[C@@]4(C)CC[C@H](O[C@@H]5OC[C@H](O[C@@H]6O[C@H](CO)[C@@H](O)[C@H](O)[C@H]6O)[C@H](O)[C@H]5O[C@@H]5O[C@@H](C)[C@H](O)[C@@H](O)[C@H]5O)C(C)(C)[C@@H]4CC[C@@]3(C)[C@]1(C)CC2 | > 100 | – | 46.7 | > 100 | 55.8 | > 100 | 41.9 | –
7 | CCCOC(=O)[C@]12CCC(C)(C)C[C@H]1C1=CC[C@@H]3[C@@]4(C)CC[C@H](O[C@@H]5OC[C@H](O[C@@H]6O[C@H](CO)[C@@H](O)[C@H](O)[C@H]6O)[C@H](O)[C@H]5O[C@@H]5O[C@@H](C)[C@H](O)[C@@H](O)[C@H]5O)C(C)(C)[C@@H]4CC[C@@]3(C)[C@]1(C)CC2 | 8.3 | – | 1.8 | 4.7 | 11.9 | 12.3 | 9.7 | –
8 | C[C@@H]1O[C@@H](O[C@H]2[C@H](O[C@H]3CC[C@]4(C)[C@H]5CC=C6[C@@H]7CC(C)(C)CC[C@]7(C(=O)OCCCC(=O)O)CC[C@@]6(C)[C@]5(C)CC[C@H]4C3(C)C)OC[C@H](O[C@@H]3O[C@H](CO)[C@@H](O)[C@H](O)[C@H]3O)[C@@H]2O)[C@H](O)[C@H](O)[C@H]1O | 14.1 | – | 11.7 | 8.3 | 7.4 | 9.6 | 20.2 | –
9 | COC(=O)[C@]12CCC(C)(C)C[C@H]1C1=CC[C@@H]3[C@@]4(C)CC[C@H](O[C@@H]5OC[C@H](O[C@@H]6O[C@H](CO)[C@@H](O)[C@H](O)[C@H]6O)[C@H](O)[C@H]5O[C@@H]5O[C@@H](C)[C@H](O)[C@@H](O)[C@H]5O)C(C)(C)[C@@H]4CC[C@@]3(C)[C@]1(C)CC2 | 1.3 | > 7 | 1.1 | 3.5 | 1.7 | 3.1 | 4.6 | inhibition in vivo at 20 mg/kg [8]: 46.8%; Activity (Mus musculus [9]): Non-Toxic; Activity (Mus musculus [10]): 39.74 g; inhibition in vivo at 10 mg/kg [11]: 36.2%; Activity (Mus musculus [12]): Non-Toxic; Activity (Mus musculus [13]): 41.05 g
10 | C[C@@H]1O[C@@H](O[C@H]2[C@H](O[C@H]3CC[C@]4(C)[C@H]5CC=C6[C@@H]7CC(C)(C)CC[C@]7(C(=O)O)CC[C@@]6(C)[C@]5(C)CC[C@H]4C3(C)C)OC[C@H](O[C@@H]3O[C@H](CO)[C@@H](O)[C@H](O)[C@H]3O)[C@@H]2O)[C@H](O)[C@H](O)[C@H]1O [HEDERACOLCHISIDE A1] | 3.7 | < 0.042 | 2.2 | 2.8 | 1.7 | 3.3 | 8.4 | Activity (Mus musculus [14]): 41.76 g; IC50 [15]: 8.4 µM; inhibition in vivo at 6 mg/kg [16]: 47.5%; IC50 [17]: 1.3 µM; IC50 [18]: 1.7 µM; MTD at 168 h [19]: < 8 mg/kg; IC50 [20]: 3.7 µM; IC50 [21]: 2.2 µM; IC50 [22]: 2.8 µM
